# Measurements published in patent US20160031868A1, “BENZIMIDAZOLONE DERIVATIVES AS BROMODOMAIN INHIBITORS” (GILEAD SCIENCES, INC., priority 2013, published 2016).
# Like-named read-outs stand apart in the source and are kept apart here.
# Columns and labels:
# [1] = MT-4 proliferation assay in 384-well format (Cell Titer Glo); format: cell-based, human; conditions: human, MT-4 cells, Table 2, 50% decrease in luminescence signal, read-out: CC50 MT4 384
# Method: Compounds were tested in a standardized high-throughput 384-well assay format. Each compound was serially diluted 3-fold in 100% DMSO in polypropylene 384-well plates using a Biomek FX Workstation, and 0.4 μL compound added to an assay plate containing 40 μL RPMI media. Compounds were arranged in a horizontal pattern, with 10 concentrations per compound, and 8 compounds added per plate. Due to low DMSO tolerability, the final DMSO concentration never exceeded 0.5% (v/v). Each assay plate contained 10 μM Puromycin and 0.5% DMSO in RPMI-1640 as positive and negative controls respectively. MT-4 cells (HTLV-1 transformed, human T lymphoblastoid cells, NIH Aids Reagent program) were added in volumes of 35 μL per well and 2,000 cells per well using a Biotek uFlow Workstation (Biotek, Winooski, Vt.), and the plates subsequently incubated for 5 days at 37° C. in an incubator set at 5% CO2 and 90% humidity.
# After 5 days, 22 μL Cell Titer Glo (Promega) was added to the assay plates with a Biotek uFlow Workstation. Plates were subsequently placed on a Perkin Elmer Envision Plate Reader for 5 minutes before the luminescence signal was read. CC50 values were calculated from the compound concentration that caused a 50% decrease in luminescence signal, a measure of toxicity, and calculated by non-linear regression using Pipeline Pilot software (Accelrys, San Diego, Calif.).
# BRD4-1 = molecular target: T1, BRD4-1 (Homo sapiens, UniProt O60885); experiment: BRD4-1 Ligand KI assay (TR-FRET displacement of Cy5 labeled probe); format: binding
# T1 construct: made in house; host or cells: Escherichia coli
# Method: Binding of the two tandem bromodomains, BRD4-I and BRD4-2, to a Cy5 labeled probe/ligand (Compound 201-A) were measured using a homogeneous time resolved fluorescence resonance energy transfer (TR-FRET) assay.
# (§1) The labeled ligand specifically binds BRD4-1 and BRD4-2 and can be displaced by a small molecule inhibitor that shares a similar or overlapping binding site. BRD4-I and BRD4-2 were expressed and purified from Escherichia coli as N-terminal His6-tagged proteins. A Eu-cryptate labeled anti-His antibody (Perkin Elmer) was used to specifically bind BRD4. […] Assays were performed in 50 mM Hepes (pH 7.5), 150 mM NaCl, 0.1 mg/ml BSA, 0.01% (v/v) Brij, 0.5% (v/v) DMSO and 10 nM labeled ligand at the following concentrations for each BRD4 isoform: 2 nM BRD4-1 and 0.5 nM BRD4-2. After an assay reaction time of 60 minutes at 25° C., binding was measured with 2 nM Eu-cryptate labeled anti-His antibody. TR-FRET signal was detected on an Envision plate reader (Ex: 320 nm; Em: 615/665 nm; 100 μs delay and 200 μs read window). Data were normalized based on a positive (2 μM I-BET) and negative (DMSO) controls and IC50 values were calculated from the fit of the dose-response curves to a four-parameter equation. All IC50 values represent geometric mean values of a minimum of four determinations. The IC50 values were converted to Ki values (dissociation constant for BRD4-inhibitor complex) using the Cheng and Prusoff equation for a competitive inhibitor mode of action. These assays generally produced results within 3-fold of the reported mean.
# BRD4-2 = molecular target: T2, BRD4-2 (Homo sapiens, UniProt O60885); experiment: BRD4-2 Ligand KI assay (TR-FRET displacement of Cy5 labeled probe); format: binding
# T2 construct: made in house; host or cells: Escherichia coli
# Method: as §1, with “BRD4-I” for “The labeled ligand specifically binds BRD4-1 and BRD4-2 and can be displaced by a small molecule inhibitor that shares a similar or overlapping binding site. BRD4-I”, “action.” for “action. These assays generally produced results within 3-fold of the reported mean.”
# [2] = test system: c-Myc produced in MM1S cells; experiment: c-Myc down regulation assay (MSD ELISA) in MM1S cells; format: cell-based; conditions: Homo sapiens, MM1.S, 24 hrs incubation, geometric mean, read-out: cMYC EC50
# Method: An enzyme linked immunosorbent assay using the Meso Scale Diagnostic (MSD) technology was used to detect levels of c-Myc produced in MM1S cells (ATCC). MM1S cells were cultured in RPMI-1640 media (Corning), supplemented with 10% FBS (Hyclone), 1% penicillin-streptomycin (Cellgro), 2-mercaptoethanol (Gibco) and seeded onto 384-tissue culture treated filter binding plates (Millipore) at a density of 40K cells/well containing titrations of small molecule inhibitors or DMSO (0.4%) in a volume of 100 μl of media. After an incubation time of 24 hrs, cells were lysed (1× lysis buffer (Thermo) supplemented with protease and phosphatase inhibitor cocktail (Thermo)) and the plates centrifuged (1000 rpm, 1 min) to capture c-Myc on MSD plates coated with a monoclonal c-Myc antibody (Origene). Assay wells were washed (3× Invitrogen wash buffer) and probed with a polyclonal c-Myc antibody (Abcam) and MSD detection antibody solution in order to detect levels of c-Myc on the MSD platform. c-Myc capture was reported in pg/ml based on a standard curve using recombinant c-Myc protein (Prosci). EC50 values were calculated from the fit of the dose-response curves to a four-parameter equation. All EC50 values represent geometric mean values of a minimum of four determinations. These assays generally produced results within 3-fold of the reported mean.
# [3] = 10 nM labeled ligand, 2 nM BRD4-1, Ki from IC50 by Cheng and Prusoff, read-out: BRD4-1 Ligand K1
# [4] = 10 nM labeled ligand, 0.5 nM BRD4-2, Ki from IC50 by Cheng and Prusoff, read-out: BRD4-2 Ligand K2
Structure (SMILES),Ki (BRD4-1; [3]) [nM],Ki (BRD4-2; [4]) [nM],EC50 [2] [nM],CC50 at 5 days [1] [nM],Ki (BRD4-1) [nM],Ki (BRD4-2) [nM]
"Cc1noc(C)c1-c1cc(-c2c(C3CC3)n[nH]c2C2CC2)c2[nH]c(=O)[nH]c2c1 [Example 23, 4-(3,5-dicyclopropyl-1H-pyrazol-4-yl)-6-(3,5-dimethylisoxazol-4-yl)-1H-benzo[d]imidazol-2(3H)-one]",12.9,3,13.2,9.1,,
"Cc1noc(C)c1-c1cc(C(O)(c2ccccc2)c2ccc3ccc(F)cc3n2)c2[nH]c(=O)[nH]c2c1 (centres unmarked) [Example 33, 6-(3,5-dimethylisoxazol-4-yl)-4-((7-fluoroquinolin-2-yl)(hydroxy)(phenyl)methyl)-1H-benzo[d]imidazol-2(3H)-one]",14.1,5.3,176,29.1,,
"Cc1noc(C)c1-c1cc(C(O)(c2ccccn2)c2ccc3ccc(F)cc3n2)c2[nH]c(=O)[nH]c2c1 (centres unmarked) [Example 36, 6-(3,5-dimethylisoxazol-4-yl)-4-((7-fluoroquinolin-2-yl)(hydroxy)(pyridin-2-yl)methyl)-1H-benzo[d]imidazol-2(3H)-one]",14.1,5.3,176,29.1,,
"Cc1noc(C)c1-c1cc(C(O)(c2ccc(F)cn2)c2c(F)cccc2F)c2[nH]c(=O)[nH]c2c1 (centres unmarked) [Example 38, 4-((2,6-difluorophenyl)(5-fluoropyridin-2-yl)(hydroxy)methyl)-6-(3,5-dimethylisoxazol-4-yl)-1H-benzo[d]imidazol-2(3H)-one]",7.8,4.4,84.7,29.7,,
"Cc1noc(C)c1-c1cc(C(O)(c2cnccn2)c2c(F)cccc2F)c2[nH]c(=O)[nH]c2c1 (centres unmarked) [Example 49, 4-((2,6-difluorophenyl)(hydroxy)(pyrazin-2-yl)methyl)-6-(3,5-dimethylisoxazol-4-yl)-1H-benzo[d]imidazol-2(3H)-one]",8.1,,,9.7,,
"Cc1noc(C)c1-c1cc(C(O)(c2ccccn2)c2ccc(Cl)cn2)c2[nH]c(=O)[nH]c2c1 (centres unmarked) [Example 54, 4-((5-chloropyridin-2-yl)(hydroxy)(pyridin-2-yl)methyl)-6-(3,5-dimethylisoxazol-4-yl)-1H-benzo[d]imidazol-2(3H)-one]",,,111,27.1,22.7,14.1
"Cc1noc(C)c1-c1cc(C(O)(c2cnccn2)c2c(F)cc(F)cc2F)c2[nH]c(=O)[nH]c2c1 (centres unmarked) [Example 56, 6-(3,5-dimethylisoxazol-4-yl)-4-(hydroxy(pyrazin-2-yl)(2,4,6-trifluorophenyl)methyl)-1H-benzo[d]imidazol-2(3H)-one]",6,3.6,40.9,24.8,,
"Cc1noc(C)c1-c1cc(C(O)(c2ccccn2)c2ccccn2)c2[nH]c(=O)[nH]c2c1 [Example 133, 6-(3,5-dimethylisoxazol-4-yl)-4-(hydroxydi(pyridin-2-yl)methyl)-1H-benzo[d]imidazol-2(3H)-one]",,,44.3,25.5,40.3,15.8

# Second part, led by results:
Ki (BRD4-1; [3]) [nM],Ki (BRD4-2; [4]) [nM],EC50 [2] [nM],Structure (SMILES),CC50 at 5 days [1] [nM],Ki (BRD4-1) [nM],Ki (BRD4-2) [nM]
11.8,5.9,128,"Cc1noc(C)c1-c1cc(C(O)(c2ccc(F)cn2)c2ccc(F)cc2F)c2[nH]c(=O)[nH]c2c1 (centres unmarked) [Example 39, 4-((2,4-difluorophenyl)(5-fluoropyridin-2-yl)(hydroxy)methyl)-6-(3,5-dimethylisoxazol-4-yl)-1H-benzo[d]imidazol-2(3H)-one]",42.1,,
12.8,5,104,"Cc1noc(C)c1-c1cc(C(O)(c2ccc(F)cn2)c2cc(F)ccc2F)c2[nH]c(=O)[nH]c2c1 (centres unmarked) [Example 41, 4-((2,5-difluorophenyl)(5-fluoropyridin-2-yl)(hydroxy)methyl)-6-(3,5-dimethylisoxazol-4-yl)-1H-benzo[d]imidazol-2(3H)-one]",47.3,,
8.7,5.9,,"Cc1noc(C)c1-c1cc(C(O)(c2cccnn2)c2c(F)cccc2F)c2[nH]c(=O)[nH]c2c1 (centres unmarked) [Example 50, 4-((2,6-difluorophenyl)(hydroxy)(pyridazin-3-yl)methyl)-6-(3,5-dimethylisoxazol-4-yl)-1H-benzo[d]imidazol-2(3H)-one]",16,,
8.9,6.4,135,"Cc1noc(C)c1-c1cc(C(O)(c2ccc(F)cn2)c2c(F)cc(F)cc2F)c2[nH]c(=O)[nH]c2c1 (centres unmarked) [Example 52, 6-(3,5-dimethylisoxazol-4-yl)-4-((5-fluoropyridin-2-yl)(hydroxy)(2,4,6-trifluorophenyl)methyl)-1H-benzo[d]imidazol-2(3H)-one]",36.1,,
14.5,18.2,141,"Cc1noc(C)c1-c1cc(C(O)(c2ccc(Cl)cn2)c2ccc(Cl)cn2)c2[nH]c(=O)[nH]c2c1 [Example 55, 4-(bis(5-chloropyridin-2-yl)(hydroxy)methyl)-6-(3,5-dimethylisoxazol-4-yl)-1H-benzo[d]imidazol-2(3H)-one]",41,,
34.2,24,154,"Cc1noc(C)c1-c1cc(-c2cccnc2C2CC2)c2[nH]c(=O)[nH]c2c1 [Example 73, 4-(2-cyclopropylpyridin-3-yl)-6-(3,5-dimethylisoxazol-4-yl)-1H-benzo[d]imidazol-2(3H)-one]",61,,
69.9,5.3,74.4,Cc1cccc(C(O)(c2cccc(C)n2)c2cc(-c3c(C)noc3C)cc3[nH]c(=O)[nH]c23)n1 [Example 134],19.1,,
7.7,2.7,,"Cc1noc(C)c1-c1cc(C(O)(c2ccccn2)C2CCCCC2)c2[nH]c(=O)[nH]c2c1 (centres unmarked) [Example 144, 4-(cyclohexyl(hydroxy)(pyridin-2-yl)methyl)-6-(3,5-dimethylisoxazol-4-yl)-1H-benzo[d]imidazol-2(3H)-one]",,,
